Data reported in patent publication US6165984A, “Naringin and naringenin as inhibitors of acyl CoA-cholesterol-o-acyltransferase” (Korea Institute of Science & Technology, priority 1997, dated 2000).

Legend:
[1] = tested on: macrophage-lipid complex on the arterial endothelium; assay: Fatty streak analysis: macrophage-lipid complex on main artery of cholesterol-fed rabbits (Example 6); assay type: in vivo, New Zealand White rabbit; conditions: for inhibition of accumulation of macrophage-lipid complex on the arterial endothelium (conclusion): 0.1% in 1% cholesterol diet; for area of macrophage-lipid complex accumulated on the arterial endothelium, compared to control group / M-L (macrophage-lipid) complex area: 1% cholesterol diet, 6 weeks, 0.1% naringin or naringenin; for M-L (macrophage-lipid) complex area: proportion of total arterial area, control 35
From the text: RC4 diet comprises 7.6% moisture, 22.8% crude protein, 2.8% crude fat, 8.8% crude ash, 14.4% crude cellulose and 43.6% soluble nitrogen-free substances. The rabbits were bred for 6 weeks while being allowed free access to the diets and water. The rabbits bred in (Step 1) were sacrificed and their chest were incised. The main artery was cut out therefrom in a length of about 5 cm downward from the site 1 cm above the aortic valve and the fat surrounding the main artery was removed. The main artery was incised in the middle along the longitudinal axis and pinned to a dish. The moist artery was photographed and, then, staining of fatty streak was carried out in accordance with the method of […]., et al. (J. Lab. Clin. […] A part of the incised main artery was washed three times by 2 min. with anhydrous propylene glycol and stained for 30 min. with a saturated solution of Oil Red O (ORO, Sigma Co.) dissolved in propylene glycol. Thereafter, the artery was washed twice by 3 min. with 85% propylene glycol to remove remaining staining solution and, then washed with physical saline. The artery was photographed and the photograph was traced. The area of stained region (fatty streak region) was determined with an image analyzer (LEICA, Q-600, Germany) and its proportion (%) to the total arterial area was calculated. On the other hand, the other part of the main artery was stained in accordance with hematoxylin-eosin (H&E) and Masson's trichrome staining methods and observed under a microscope to confirm whether the macrophage-lipid complexes were accumulated in the intima, internus, elastic lamina and media.

[2] = Serum GOT and GPT levels in rats (Example 7); assay type: in vivo, Sprague-Dawley rat; conditions: 1% cholesterol diet plus 0.02% naringin, six weeks
From the text: 20 four-week-old Sprague-Dawley rats (Taihan laboratory animal center, Korea) each weighing about 90 to 110 g were evenly divided into two dietary groups by a randomized block design. The rats of the two groups were fed with two different high-cholesterol diets, i.e., AIN-76 laboratory animal diet (ICN Biochemicals, Cleveland, Ohio, U.S.A.) containing 1% cholesterol (Control group), and 1% cholesterol plus 0.02% naringin, respectively.
Blood samples were taken from the rats of the two dietary groups and serum GOT (glutamate-oxaloacetate transaminase) and GPT (glutamate-pyruvate transaminase) levels were determined in accordance with the method of Reitman and Frankel (Reitman, S. and J. S. Frankel, Am. J. Clin. Pathol., 28, 56(1956)). GOT and GPT are synthesized in the liver and heart, and released into blood stream upon the damage of these organs. Accordingly, GOT and GPT are representative markers of the liver-function and high serum GOT and GPT levels mean severe damage of the liver.

hepatic cells = conditions: rabbits, six weeks
Method: The same procedure as in (Step 1) was repeated except that 30 three-month old New Zealand White rabbits (Yeonam Horticulture and Animal Husbandry College, Korea) each weighing about 2.5 to 2.6 kg were used in place of the rats, and the rabbits were fed for six weeks with three different diets, i.e., RC4 diet containing 1% cholesterol (Control group); 1% cholesterol plus 1 mg/kg Lovastatin® (Comparative group); and 1% cholesterol plus 0.1% naringin, respectively.
Thereafter, the livers were separated from the rabbits and the histopathological observations were carried out as follows.
The rabbits were anesthetized with an intramuscular injection of ketamine (75 mg/kg) and subjected to an abdominal incision. […] The fixed liver was washed sufficiently with water, dehydrated stepwise with 70%, 80%, 90% and 100% ethanol and, then, embedded in paraffin. The embedded liver was sectioned in 4 μm thickness with a microtome and stained with hematoxylin and eosin. The stained liver specimen was made transparent with xylene, mounted with permount, and then observed under a microscope to confirm the presence of lesions.

[3] = Serum GOT, GPT and γGTP in a person (Example 7, Step 4); assay type: in vivo; conditions: human, oral, 10 mg/kg daily
Method: Naringin was orally administered to a person at a daily dose of 10 mg/kg for 68 days and serum GOT, GPT and γGTP levels were determined just before the administration (day 0), and 45 and 68 days after the administration (day 45 and day 68), respectively. Consequently, serum GOT levels at day 45 and day 68 decreased by 17%, respectively, in comparison to that of day 0. Serum GPT levels at day 45 and day 68 decreased by 15% and 19%, respectively, in comparison to that of day 0. Further, serum γGTP levels at day 45 and day 68 decreased by 25% and 51%, respectively, in comparison to that of day 0.

[4] = Serum γGTP in a habitual drinker (Example 7, Step 4); assay type: in vivo; conditions: human, oral, 6 mg/kg daily, 30 days; day 0: 129 IU/l
Method: On the other hand, naringin was orally administered to a person, who had drunk alcoholic beverages habitually in an amount of 100 cc per day, at a daily dose of 6 mg/kg for 30 days and serum γGTP level was determined just before the administration (day 0) and 30 days after the administration (day 30). Consequently, initial serum γGTP level at day 0 was 129 IU/l, while that of day 30 decreased to 69 IU/l which is within the normal range.

Row | SMILES | inhibition of accumulation of macrophage-lipid complex on the arterial endothelium (conclusion) [1] | area of macrophage-lipid complex accumulated on the arterial endothelium, compared to control group ([1]; 1 mg/kg Lovastatin) | M-L (macrophage-lipid) complex area ([1]; 1 mg/kg Lovastatin) [%] | layer of macrophage-lipid complex on the arterial endothelium (FIGS. 1A-1C) ([1]; 1 mg/kg Lovastatin, 0.1% naringin, control: thick layer) | serum GOT level lower than control group [2] | serum GPT level lower than control group [2] [%] | occurrence of fatty liver (hepatic cells; 1% cholesterol diet plus 0.1% naringin) | microscopic features of the liver (FIGS. 2A-2C) (hepatic cells; 1% cholesterol diet, 1 mg/kg Lovastatin, 0.1% naringin) | decrease of serum GOT level, day 45 vs day 0 ([3]; day 45) [%] | decrease of serum GPT level, day 45 vs day 0 ([3]; day 45) [%] | decrease of serum γGTP level, day 45 vs day 0 ([3]; day 45) [%] | decrease of serum GOT level, day 68 vs day 0 ([3]; day 68) [%] | decrease of serum GPT level, day 68 vs day 0 ([3]; day 68) [%] | serum γGTP level at day 30 [4] [IU/l]
1 | O=C1C[C@@H](c2ccc(O)cc2)Oc2cc(O)cc(O)c21 [naringenin] | strongly inhibit | decreased significantly | 13 |  |  |  |  |  |  |  |  |  |  | 
2 | C[C@@H]1O[C@@H](O[C@H]2[C@H](Oc3cc(O)c4c(c3)O[C@H](c3ccc(O)cc3)CC4=O)O[C@H](CO)[C@@H](O)[C@@H]2O)[C@H](O)[C@H](O)[C@H]1O [naringin, Naringin] | strongly inhibit | decreased significantly | 12 | no or very thin layers of macrophage-lipid complex | about 30% | ~10 | strongly inhibits the occurrence of fatty liver | normal and the deposition of fat is not observed | 17 | 15 | 25 | 17 | 19 | 69
